Reference: ChEMBL document CHEMBL1201862, “PubChem BioAssay data set” (2004)
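A five-concentration, 48-hour dose response in 96-well plates underlies each endpoint, interpolated linearly between surrounding concentrations. GI50 is the concentration that inhibits growth by half.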 Activity calls are given as the source filed them. Rule as the data show it: active = GI50 up to about 1.1 µM and inactive = higher.

Tests used:
Assay in all cases: NCI anticancer screen, dose series, 48 h
UO-31 = system: UO-31
SK-MEL-2 = system: SK-MEL-2
SNB-19 = system: SNB-19
HCT-116 = system: HCT-116
UACC-257 = system: UACC-257
ACHN = system: ACHN
786-0 = system: 786-0
COLO 205 = system: COLO 205
OVCAR-3 = system: OVCAR-3
OVCAR-8 = system: OVCAR-8
SF-268 = system: SF-268
SNB-78 = system: SNB-78
HOP-92 = system: HOP-92
HT-29 = system: HT-29
SW-620 = system: SW-620
DLD-1 = system: DLD-1
OVCAR-5 = system: OVCAR-5

SMILES | GI50 (UO-31) | GI50 (SK-MEL-2) | GI50 (SNB-19) | GI50 (HCT-116) | GI50 (UACC-257) | GI50 (ACHN) | GI50 (786-0) | GI50 (COLO 205) | GI50 (OVCAR-3) | GI50 (OVCAR-8) | GI50 (SF-268) | GI50 (SNB-78) | GI50 (HOP-92) | GI50 (HT-29) | GI50 (SW-620) | GI50 (DLD-1) | GI50 (OVCAR-5)
COc1cc2c(c(OC)c1OC)-c1ccc(SC)c(=O)cc1[C@@H](NCc1ccc(F)cc1)CC2 | 1.03 µM (active) | < 0.0075 µM (active) | < 0.0075 µM (active) | < 0.0075 µM (active) | 0.0117 µM (active) | < 0.0075 µM (active) | < 0.0075 µM (active) | < 0.0075 µM (active) | < 0.0075 µM (active) | < 0.0075 µM (active) | < 0.0075 µM (active) | < 0.0075 µM (active) | < 0.0075 µM (active) | < 0.0075 µM (active) | < 0.0075 µM (active) | < 0.0075 µM (active) | 2.54 µM (inactive)
Cc1ccc(NC(=O)C(=O)C(C2C(C)CC(=O)C2CC(=O)O)[N+](=O)[O-])cc1 (stereo not given) | > 100 µM (inactive) | > 100 µM (inactive) | > 100 µM (inactive) | > 100 µM (inactive) | > 100 µM (inactive) | > 100 µM (inactive) | > 100 µM (inactive) | > 100 µM (inactive) | > 100 µM (inactive) | > 100 µM (inactive) | > 100 µM (inactive) | > 100 µM (inactive) | > 100 µM (inactive) | > 100 µM (inactive) | > 100 µM (inactive) | > 100 µM (inactive) | > 100 µM (inactive)
CCCC(=O)C(CC)/C(CCC(=O)N(Cc1ccccc1)Cc1ccccc1)=N/NC(=O)C[N+](C)(C)C (stereo not given) | > 100 µM (inactive) | > 100 µM (inactive) | > 100 µM (inactive) | > 100 µM (inactive) | > 100 µM (inactive) | > 100 µM (inactive) | > 100 µM (inactive) | > 100 µM (inactive) | > 100 µM (inactive) | > 100 µM (inactive) | > 100 µM (inactive) | > 100 µM (inactive) | > 100 µM (inactive) | > 100 µM (inactive) | > 100 µM (inactive) | > 100 µM (inactive) | > 100 µM (inactive)
CN1CCN(c2nc(N)c(Br)c(Cl)n2)CC1 | > 100 µM (inactive) | > 100 µM (inactive) | > 100 µM (inactive) |  | > 100 µM (inactive) | > 100 µM (inactive) | > 100 µM (inactive) | > 100 µM (inactive) | > 100 µM (inactive) | > 100 µM (inactive) | > 100 µM (inactive) | > 100 µM (inactive) | 54.3 µM (inactive) |  | > 100 µM (inactive) | > 100 µM (inactive) | > 100 µM (inactive)
O=C1C=C(O)C(=Cc2c(O)cc(O)cc2O)C(O)=C1 | > 100 µM (inactive) | > 100 µM (inactive) | > 100 µM (inactive) | > 100 µM (inactive) | > 100 µM (inactive) |  | > 100 µM (inactive) | > 100 µM (inactive) | > 100 µM (inactive) | > 100 µM (inactive) | > 100 µM (inactive) | > 100 µM (inactive) | > 100 µM (inactive) | > 100 µM (inactive) | > 100 µM (inactive) | > 100 µM (inactive) | > 100 µM (inactive)
Cc1ccc(C2=NO[C@@H]3C(=O)N(c4ccc(Cc5ccc(N6C(=O)[C@H]7C(c8ccc(C)cc8)=NO[C@H]7C6=O)cc5)cc4)C(=O)[C@H]23)cc1 | > 100 µM (inactive) | > 100 µM (inactive) |  |  | 38.7 µM (inactive) | > 100 µM (inactive) | > 100 µM (inactive) | > 100 µM (inactive) | > 100 µM (inactive) | > 100 µM (inactive) | > 100 µM (inactive) | > 100 µM (inactive) | > 100 µM (inactive) | > 100 µM (inactive) | > 100 µM (inactive) | > 100 µM (inactive) | > 100 µM (inactive)
Cc1cccc(C)c1N1C(=O)C(=O)C(c2nc3ccccc3s2)/C(=N\N)C1=O (stereo not given) | > 100 µM (inactive) | > 100 µM (inactive) | > 100 µM (inactive) | > 100 µM (inactive) | > 100 µM (inactive) | 62.1 µM (inactive) | > 100 µM (inactive) | > 100 µM (inactive) | > 100 µM (inactive) | > 100 µM (inactive) | > 100 µM (inactive) | > 100 µM (inactive) | > 100 µM (inactive) | > 100 µM (inactive) | > 100 µM (inactive) | > 100 µM (inactive) | > 100 µM (inactive)
O=C1C/C(Br)=C\c2ccccc2-c2ccccc21 | 2.4 µM (inactive) | 2.7 µM (inactive) | 6.89 µM (inactive) | 1.8 µM (inactive) | 4.19 µM (inactive) | 1.91 µM (inactive) | 1.4 µM (inactive) | 3.76 µM (inactive) | 2.45 µM (inactive) | 2.19 µM (inactive) | 2.85 µM (inactive) | 3.85 µM (inactive) | 1.85 µM (inactive) | 2.07 µM (inactive) | 1.39 µM (inactive) | 1.11 µM (active) | 2.69 µM (inactive)
O=C(CCC(=O)Nc1ccc(Cl)cc1)CC(=O)c1ccc2ccccc2c1 | > 100 µM (inactive) | > 100 µM (inactive) | > 100 µM (inactive) | > 100 µM (inactive) | > 100 µM (inactive) | > 100 µM (inactive) | > 100 µM (inactive) | > 100 µM (inactive) | > 100 µM (inactive) | > 100 µM (inactive) | > 100 µM (inactive) | > 100 µM (inactive) | > 100 µM (inactive) | > 100 µM (inactive) | > 100 µM (inactive) | > 100 µM (inactive) | > 100 µM (inactive)
C1OC1CN1CCN(CC2CO2)CC1 (stereo not given) | 97.5 µM (inactive) | > 100 µM (inactive) | > 100 µM (inactive) | 72.8 µM (inactive) | > 100 µM (inactive) | 12.4 µM (inactive) | 35.3 µM (inactive) | > 100 µM (inactive) | > 100 µM (inactive) | > 75.7 µM (inactive) | 22.8 µM (inactive) | > 100 µM (inactive) | 80.9 µM (inactive) | > 100 µM (inactive) | > 100 µM (inactive) | > 100 µM (inactive) | > 100 µM (inactive)
COc1ccc2c(c1)Cc1c-2[nH]c2cc3c(cc2c1=O)OCO3 | 15.8 µM (inactive) | 6.14 µM (inactive) | 23 µM (inactive) | 6.56 µM (inactive) |  | 7.94 µM (inactive) | 20.2 µM (inactive) | 12 µM (inactive) | 16.7 µM (inactive) | 19.1 µM (inactive) | 18.7 µM (inactive) | 8.83 µM (inactive) | 17.7 µM (inactive) | 6.44 µM (inactive) | 27.5 µM (inactive) | 13.9 µM (inactive) | 
Fc1cccc2c1cc1ccc3cccc4ccc2c1c34 | > 100 µM (inactive) | > 100 µM (inactive) | > 100 µM (inactive) | > 100 µM (inactive) | 95.7 µM (inactive) | > 100 µM (inactive) | > 100 µM (inactive) | > 100 µM (inactive) | > 100 µM (inactive) | > 100 µM (inactive) | > 100 µM (inactive) | > 100 µM (inactive) | > 100 µM (inactive) | > 100 µM (inactive) | > 100 µM (inactive) | > 100 µM (inactive) | > 100 µM (inactive)
Cc1ccccc1Cn1nc2ccccc2cc1=O | > 100 µM (inactive) | > 100 µM (inactive) | > 100 µM (inactive) | > 100 µM (inactive) | > 100 µM (inactive) | > 100 µM (inactive) | > 100 µM (inactive) | > 100 µM (inactive) | > 100 µM (inactive) | > 100 µM (inactive) | > 100 µM (inactive) | > 100 µM (inactive) | > 100 µM (inactive) | > 100 µM (inactive) | > 100 µM (inactive) | > 100 µM (inactive) | > 100 µM (inactive)
C/C(=C1/CCCC2(N=NCC2c2ccccc2)C1=O)c1ccccc1 (stereo not given) | 20.9 µM (inactive) | 19.1 µM (inactive) | 66.4 µM (inactive) | 18.7 µM (inactive) | 22.1 µM (inactive) | 31.8 µM (inactive) | 46.7 µM (inactive) | 16.5 µM (inactive) | 17.6 µM (inactive) | 21.3 µM (inactive) | 65.3 µM (inactive) | 25.4 µM (inactive) | 24.2 µM (inactive) | 20.5 µM (inactive) | 69.8 µM (inactive) | 38.3 µM (inactive) | 36 µM (inactive)
CCOC(=O)C(OCC1CC=CCC1)Sc1ccccc1 (stereo not given) | > 100 µM (inactive) | > 100 µM (inactive) | > 100 µM (inactive) | > 100 µM (inactive) | > 100 µM (inactive) | > 100 µM (inactive) | > 100 µM (inactive) | > 100 µM (inactive) | > 100 µM (inactive) | > 100 µM (inactive) | > 100 µM (inactive) | > 100 µM (inactive) | > 100 µM (inactive) | > 100 µM (inactive) | > 100 µM (inactive) | > 100 µM (inactive) | > 100 µM (inactive)
COC1[C@H](NC(=O)OC(C)(C)C)C(=O)N1Cc1ccccc1 (stereo not given in full) | > 100 µM (inactive) | > 100 µM (inactive) | > 100 µM (inactive) | > 100 µM (inactive) | > 100 µM (inactive) | > 100 µM (inactive) | > 100 µM (inactive) | > 100 µM (inactive) | > 100 µM (inactive) | > 100 µM (inactive) | > 100 µM (inactive) | > 100 µM (inactive) | 74.6 µM (inactive) | > 100 µM (inactive) | > 100 µM (inactive) | > 100 µM (inactive) | > 100 µM (inactive)
